Measured values reported in patent publication US20140213445A1, “Use of Pesticidal Active 3-Arylquinazolin-4-One Derivatives in Soil Application Methods” (BASF SE, priority 2011, published 2014).

Assays:
[1] = test system: 2-Spotted Spider Mite (Tetranychus urticae); assay: Test B.1.1 Foliar assay 2-spotted spider mite on Sieva lima bean plants; type: in vivo; conditions: 120 h, test solution 100 ppm, infested lima bean plants dipped, counts after 5 days, read-out: mortality in comparison with untreated controls
Procedure: The active compounds were formulated in 50:50 (vol:vol) acetone:water and 100 ppm Kinetica™ surfactant.
At about 2 hours before treatment Sieva lima bean plants with primary leaves expanded to 7-12 cm were infested by placing on each a small piece from an infested leaf (with about 100 mites) taken from the main colony in order to allow the mites to move over to the test plant to lay eggs. The piece of leaf used to transfer the mites was removed. The newly-infested plants were dipped in the test solution and allowed to dry. The test plants were kept under fluorescent light (24 hour photoperiod) at about 25° C. and about 20-40% relative humidity. After 5 days mortality counts were made.

[2] = test system: Kanzawa Spider Mite (Tetranychus kanzawai); assay: Test B.1.2 Foliar assay Kanzawa spider mite on potted cotton plants; type: in vivo; conditions: cotton plants sprayed, assessed after 24, 72 and 120 hours, read-out: mortality in comparison with untreated controls
[3] = test system: root-knot nematode (Meliodogyne spp.) juveniles; assay: Test B.2.1 Tomato soil drench against root-knot nematode juveniles; type: in vivo; conditions: soil drench 0.75 mg active ingredient/plant, galls counted at 14 DAT
Procedure: Tomatoes were grown in potting soil until the approximate first true leaf stage (about 2 weeks after planting). Tomatoes were transplanted into play sand. Seven days after transplant, technical material of test compound was dissolved in acetone, and then water was added to achieve a final concentration of 50% acetone. 1 mL of solution was pipetted onto the tomato root zone. One day after treatment (DAT), each pot was infested with about 500 root-knot nematode (Meliodogyne spp.) juveniles in 1 ml distilled water. Immediately after infestation, plants were placed in the greenhouse. Plants were top watered and fertilized daily. At 14 DAT, the tomato roots were rinsed off, and the number of galls was counted. Replication was 5-times.

[4] = test system: two spotted spider mites (Tetranychus urticae); conditions: soil drench 4 mg active ingredient/plant, mites released 4 days after treatment, assessed 5 days after release
[5] = test system: two spotted spider mites; assay: Test B.1.4 Seed treatment assay in cotton; type: in vivo; conditions: cotton seed coated 0.5 mg active ingredient/seed, assessed 4 days after release of mites
[6] = test system: two spotted spider mites; assay: Test B.1.5 Seed treatment assay in cucumber; type: in vivo; conditions: cucumber seed coated 0.5 mg active ingredient/seed, assessed 4 days after release of mites
Procedure: Test solution comprising a compound of the present invention is prepared at desired concentration using water and acetone as organic solvent. Cucumber seeds are coated with such prepared test solution applied at the rate of 0.5 mg active ingredient/seed and sown to the pots. After plant emergence (eleven days after treatment & planting), a mixed population of two spotted spider mites is released onto the leaves.
Four days after the release of spider mites, the acaricidal efficacy is measured by means of the rating of the damage caused by spider mites.
Percent damage as lesions was visually assessed, and means were calculated for each treatment. Mean percent damage reduction relative to the solvent blank was calculated as 100−(mean % lesions in treatment/mean % lesions in Solvent blank)*100.

Cc1cc(F)c(-n2cnc3ccc(F)cc3c2=O)cc1SCC(F)(F)F [CE.I.30, 6-Fluoro-3-[2-fluoro-4-methyl-5-2(2,2,2-trifluoroethylsulfanyl)-phenyl]-3H-quinazolin-4-one]
mortality at 100 ppm [1]: ≥ 70%

Cc1cc(F)c(-n2cnc3ccc(OC(F)(F)F)cc3c2=O)cc1SCC(F)(F)F [CE.I.32, 6-Trifluoromethoxy-3-[2-fluoro-4-methyl-5-2(2,2,2-trifluoroethylsulfanyl)-phenyl]-3H-quinazolin-4-one]
mortality at 100 ppm [1]: ≥ 70%

Cc1cc(F)c(-n2cnc3ccc(F)cc3c2=O)cc1[S+]([O-])CC(F)(F)F (centres unmarked) [CE.I.31, 6-Fluoro-3-[2-fluoro-4-methyl-5-2(2,2,2-trifluoroethanesulfinyl)-phenyl]-3H-quinazolin-4-one]
mortality at 100 ppm [2]: ≥ 70% | mortality at 100 ppm [1]: ≥ 70% | mean percent reduction of galls in comparison with untreated controls [3]: at least 90%

Cc1cc(F)c(-n2cnc3ccccc3c2=O)cc1[S+]([O-])CC(F)(F)F (centres unmarked) [CE.I.35, 2-(2,2,2-trifluoroethylsufinyl)-4-(4-oxo-quinazolin-3-yl)-5-fluoro-toluol]
mortality at 100 ppm [2]: ≥ 70% | mean percent damage reduction in comparison with untreated controls [4]: at least 70% | mean percent damage reduction in the cotyledon stage [5]: at least 90% | mortality at 100 ppm [1]: ≥ 70% | mean percent damage reduction in the cotyledon stage [6]: at least 50%

Cc1cc(F)c(-n2cnc3ccccc3c2=O)cc1SCC(F)(F)F [CE.I.34, 2-(2,2,2-trifluoroethylsufanyl)-4-(4-oxo-quinazolin-3-yl)-5-fluoro-toluol]
mortality at 100 ppm [2]: ≥ 70% | mortality at 100 ppm [1]: ≥ 70%

Cc1cc(F)c(-n2cnc3ccc(OC(F)(F)F)cc3c2=O)cc1[S+]([O-])CC(F)(F)F (centres unmarked) [CE.I.33, 6-Trifluormethoxy-3-[2-fluoro-4-methyl-5-2(2,2,2-trifluoroethanesulfinyl)-phenyl]-3H-quinazolin-4-one]
mortality at 100 ppm [2]: ≥ 70% | mortality at 100 ppm [1]: ≥ 70%
